# What was measured:
# Format in all cases: in vivo
# Kochia (Kochia scoparia) = assay: Test A preemergence; details: Bassia scoparia, pre-emergence, 240 h, preemergence, 0 to 100 scale where 0 is no effect and 100 is complete control, read-out: Kochia plant response rating
# In short: (§1)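 Treatment is preemergence as a directed soil spray after planting, or postemergence at the one- to two-leaf stage, with test chemical in a non-phytotoxic solvent mixture plus surfactant. Plants stay in the greenhouse about 10 d before visual injury scoring on a 0 to 100 scale versus untreated controls.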
# [1] = system: barnyardgrass (Echinochloa crus-galli); assay: Test A preemergence; details: Echinochloa crus-galli, pre-emergence, 240 h, preemergence, 0 to 100 scale where 0 is no effect and 100 is complete control, read-out: Barnyardgrass plant response rating
# In short: as §1
# [2] = system: giant foxtail (Setaria faberii); assay: Test A preemergence; details: Setaria faberi, pre-emergence, 240 h, preemergence, 0 to 100 scale where 0 is no effect and 100 is complete control, read-out: Foxtail, Giant plant response rating
# In short: as §1
# [3] = system: pigweed (Amaranthus retroflexus); assay: Test A preemergence; details: Amaranthus retroflexus, pre-emergence, 240 h, preemergence, 0 to 100 scale where 0 is no effect and 100 is complete control, read-out: Pigweed plant response rating
# [4] = system: ragweed (common ragweed, Ambrosia elatior); assay: Test A preemergence; details: Ambrosia artemisiifolia, pre-emergence, 240 h, preemergence, 0 to 100 scale where 0 is no effect and 100 is complete control, read-out: Ragweed plant response rating
# In short: as §1
# [5] = system: ryegrass, Italian (Italian ryegrass, Lolium multiflorum); assay: Test A preemergence; details: Lolium multiflorum, pre-emergence, 240 h, preemergence, 0 to 100 scale where 0 is no effect and 100 is complete control, read-out: Ryegrass, Italian plant response rating
# In short: as §1
# [6] = system: Galium (catchweed bedstraw, Galium aparine); assay: Test A postemergence; details: Galium, post-emergence, 240 h, postemergence
# In short: as §1
# [7] = system: barnyardgrass (Echinochloa crus-galli); assay: Test A postemergence; details: Echinochloa crus-galli, post-emergence, 240 h, postemergence
# In short: as §1
# [8] = system: blackgrass (Alopecurus myosuroides); assay: Test A postemergence; details: Alopecurus myosuroides, post-emergence, 240 h, postemergence
# In short: as §1
# corn (Zea mays) = assay: Test A postemergence; details: Zea mays, post-emergence, 240 h, postemergence
# In short: as §1
# [9] = system: giant foxtail (Setaria faberii); assay: Test A postemergence; details: Setaria faberi, post-emergence, 240 h, postemergence
# In short: as §1
# [10] = system: pigweed (Amaranthus retroflexus); assay: Test A postemergence; details: Amaranthus retroflexus, post-emergence, 240 h, postemergence
# In short: as §1
# [11] = system: ragweed (common ragweed, Ambrosia elatior); assay: Test A postemergence; details: Ambrosia artemisiifolia, post-emergence, 240 h, postemergence
# In short: as §1
# [12] = system: ryegrass, Italian (Italian ryegrass, Lolium multiflorum); assay: Test A postemergence; details: Lolium multiflorum, post-emergence, 240 h, postemergence
# In short: as §1
# [13] = system: wheat (Triticum aestivum); assay: Test A postemergence; details: Triticum aestivum, post-emergence, 240 h, postemergence
# In short: as §1
# [14] = 125 g ai/ha, visual injury rating, approximately 10 d
compound,measurement,setting,value
CSc1ccccc1NC(=O)[C@H]1C(=O)N(C)CC[C@@H]1c1ccc(C)cc1 [Compound 1222],pest or weed control at 125 g/ha,Kochia (Kochia scoparia); [14],0%
same,pest or weed control at 500 g/ha,Kochia (Kochia scoparia); 500 g ai/ha,40%
same,pest or weed control at 125 g/ha,[1]; [14],0%
same,pest or weed control at 500 g/ha,[1]; 500 g ai/ha,20%
same,pest or weed control at 125 g/ha,[2]; [14],0%
same,pest or weed control at 500 g/ha,[2]; 500 g ai/ha,60%
same,pest or weed control at 125 g/ha,[3]; [14],0%
same,pest or weed control at 500 g/ha,[3]; 500 g ai/ha,0%
same,pest or weed control at 125 g/ha,[4]; [14],0%
same,pest or weed control at 500 g/ha,[4]; 500 g ai/ha,0%
same,pest or weed control at 125 g/ha,[5]; [14],0%
same,pest or weed control at 500 g/ha,[5]; 500 g ai/ha,0%
same,pest or weed control at 125 g/ha,"[6]; 125 g ai/ha, visual injury vs untreated controls after approx. 10 d, 0 = no effect, 100 = complete control, read-out: Galium plant response rating (0 to 100 scale)",0%
same,pest or weed control at 500 g/ha,"[6]; 500 g ai/ha, 0 to 100 scale, 0 is no effect, 100 is complete control, read-out: Galium plant response rating",0%
same,pest or weed control at 125 g/ha,"[7]; 125 g ai/ha, visual injury vs untreated controls after approx. 10 d, 0 = no effect, 100 = complete control, read-out: Barnyardgrass plant response rating (0 to 100 scale)",0%
same,pest or weed control at 500 g/ha,"[7]; 500 g ai/ha, 0 to 100 scale, 0 is no effect, 100 is complete control, read-out: Barnyardgrass plant response rating",0%
same,pest or weed control at 125 g/ha,"[8]; 125 g ai/ha, visual injury vs untreated controls after approx. 10 d, 0 = no effect, 100 = complete control, read-out: Blackgrass plant response rating (0 to 100 scale)",0%
same,pest or weed control at 500 g/ha,"[8]; 500 g ai/ha, 0 to 100 scale, 0 is no effect, 100 is complete control, read-out: Blackgrass plant response rating",0%
same,plant injury at 125 g/ha,"corn (Zea mays); 125 g ai/ha, visual injury vs untreated controls after approx. 10 d, 0 = no effect, 100 = complete control, read-out: Corn plant response rating (0 to 100 scale)",0%
same,plant injury at 500 g/ha,"corn (Zea mays); 500 g ai/ha, 0 to 100 scale, 0 is no effect, 100 is complete control, read-out: Corn plant response rating",0%
same,pest or weed control at 125 g/ha,"[9]; 125 g ai/ha, visual injury vs untreated controls after approx. 10 d, 0 = no effect, 100 = complete control, read-out: Foxtail, Giant plant response rating (0 to 100 scale)",20%
same,pest or weed control at 500 g/ha,"[9]; 500 g ai/ha, 0 to 100 scale, 0 is no effect, 100 is complete control, read-out: Foxtail, Giant plant response rating",70%
same,pest or weed control at 125 g/ha,"[10]; 125 g ai/ha, visual injury vs untreated controls after approx. 10 d, 0 = no effect, 100 = complete control, read-out: Pigweed plant response rating (0 to 100 scale)",0%
same,pest or weed control at 500 g/ha,"[10]; 500 g ai/ha, 0 to 100 scale, 0 is no effect, 100 is complete control, read-out: Pigweed plant response rating",0%
same,pest or weed control at 125 g/ha,"[11]; 125 g ai/ha, visual injury vs untreated controls after approx. 10 d, 0 = no effect, 100 = complete control, read-out: Ragweed plant response rating (0 to 100 scale)",0%
same,pest or weed control at 500 g/ha,"[11]; 500 g ai/ha, 0 to 100 scale, 0 is no effect, 100 is complete control, read-out: Ragweed plant response rating",0%
same,pest or weed control at 125 g/ha,"[12]; 125 g ai/ha, visual injury vs untreated controls after approx. 10 d, 0 = no effect, 100 = complete control, read-out: Ryegrass, Italian plant response rating (0 to 100 scale)",0%
same,pest or weed control at 500 g/ha,"[12]; 500 g ai/ha, 0 to 100 scale, 0 is no effect, 100 is complete control, read-out: Ryegrass, Italian plant response rating",0%
same,plant injury at 125 g/ha,"[13]; 125 g ai/ha, visual injury vs untreated controls after approx. 10 d, 0 = no effect, 100 = complete control, read-out: Wheat plant response rating (0 to 100 scale)",0%
same,plant injury at 500 g/ha,"[13]; 500 g ai/ha, 0 to 100 scale, 0 is no effect, 100 is complete control, read-out: Wheat plant response rating",0%

# Reference: patent US12077503B2, “Substituted cyclic amides and their use as herbicides” (FMC CORPORATION, priority 2015, dated 2024)
